For 15 compounds, IC50, Activity and Selectivity index results are on record in ChEMBL document CHEMBL1144495, “Tri-, tetra- and heptacyclic perylene analogues as new potential antineoplastic agents based on DNA telomerase inhibition” (Bioorg Med Chem, 2007).

Experiment [1] concerns the target DNA polymerase I, thermostable (Thermus aquaticus, UniProt P19821). Briefly: Inhibition of Taq polymerase.
A further experiment concerns NCI-H460. The experiment in a line: Cytotoxicity against human H460 cells by MTT assay. The experiment is classed as cell-based. Background: Formazan colour is commonly taken as a measure of viable cells.
The target of experiment [2] is T1, Telomerase reverse transcriptase (Homo sapiens, UniProt O14746). The experiment in a line: Inhibition of telomerase in JR8 cell extract at 0 to 40 uM by TRAP assay. The experiment is classed as cell-free.
Experiment [3] in a line: Selectivity index, ratio of IC50 for Taq polymerase to IC50 for telomerase.
For a further experiment, the system named is HT-29. The experiment in a line: Cytotoxicity against human HT29 cells by MTT assay. It counts as cell-based.
In experiment [4] the target is T1, Telomerase reverse transcriptase. Briefly: Inhibition of telomerase in JR8 cell extract by TRAP assay. It counts as cell-free.

pIC50: −log10 of the molar value. Active and inactive are the calls of the source. No cut-off for these calls is given here.

Sequence of DNA polymerase I, thermostable (P19821 whole entry): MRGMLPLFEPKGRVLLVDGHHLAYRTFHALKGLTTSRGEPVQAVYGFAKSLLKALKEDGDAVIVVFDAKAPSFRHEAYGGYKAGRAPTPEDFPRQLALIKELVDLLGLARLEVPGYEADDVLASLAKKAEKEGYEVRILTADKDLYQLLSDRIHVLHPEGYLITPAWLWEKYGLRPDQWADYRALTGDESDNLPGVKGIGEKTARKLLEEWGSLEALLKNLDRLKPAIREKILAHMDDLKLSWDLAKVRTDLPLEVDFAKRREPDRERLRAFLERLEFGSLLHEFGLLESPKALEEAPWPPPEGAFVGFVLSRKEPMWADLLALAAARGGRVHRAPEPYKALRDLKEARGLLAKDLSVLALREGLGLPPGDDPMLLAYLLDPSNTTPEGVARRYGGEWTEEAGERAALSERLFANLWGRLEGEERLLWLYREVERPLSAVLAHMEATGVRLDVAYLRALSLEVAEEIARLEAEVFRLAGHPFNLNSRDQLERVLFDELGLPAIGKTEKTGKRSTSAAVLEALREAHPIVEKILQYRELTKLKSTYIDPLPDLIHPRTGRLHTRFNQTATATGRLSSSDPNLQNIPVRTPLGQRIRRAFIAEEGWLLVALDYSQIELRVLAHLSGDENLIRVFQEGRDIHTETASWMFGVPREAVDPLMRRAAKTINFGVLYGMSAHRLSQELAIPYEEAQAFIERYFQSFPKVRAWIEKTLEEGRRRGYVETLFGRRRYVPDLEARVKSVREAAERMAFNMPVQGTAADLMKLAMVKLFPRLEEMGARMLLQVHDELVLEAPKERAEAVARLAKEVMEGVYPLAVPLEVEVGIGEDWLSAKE
T1 sequence (O14746 whole entry): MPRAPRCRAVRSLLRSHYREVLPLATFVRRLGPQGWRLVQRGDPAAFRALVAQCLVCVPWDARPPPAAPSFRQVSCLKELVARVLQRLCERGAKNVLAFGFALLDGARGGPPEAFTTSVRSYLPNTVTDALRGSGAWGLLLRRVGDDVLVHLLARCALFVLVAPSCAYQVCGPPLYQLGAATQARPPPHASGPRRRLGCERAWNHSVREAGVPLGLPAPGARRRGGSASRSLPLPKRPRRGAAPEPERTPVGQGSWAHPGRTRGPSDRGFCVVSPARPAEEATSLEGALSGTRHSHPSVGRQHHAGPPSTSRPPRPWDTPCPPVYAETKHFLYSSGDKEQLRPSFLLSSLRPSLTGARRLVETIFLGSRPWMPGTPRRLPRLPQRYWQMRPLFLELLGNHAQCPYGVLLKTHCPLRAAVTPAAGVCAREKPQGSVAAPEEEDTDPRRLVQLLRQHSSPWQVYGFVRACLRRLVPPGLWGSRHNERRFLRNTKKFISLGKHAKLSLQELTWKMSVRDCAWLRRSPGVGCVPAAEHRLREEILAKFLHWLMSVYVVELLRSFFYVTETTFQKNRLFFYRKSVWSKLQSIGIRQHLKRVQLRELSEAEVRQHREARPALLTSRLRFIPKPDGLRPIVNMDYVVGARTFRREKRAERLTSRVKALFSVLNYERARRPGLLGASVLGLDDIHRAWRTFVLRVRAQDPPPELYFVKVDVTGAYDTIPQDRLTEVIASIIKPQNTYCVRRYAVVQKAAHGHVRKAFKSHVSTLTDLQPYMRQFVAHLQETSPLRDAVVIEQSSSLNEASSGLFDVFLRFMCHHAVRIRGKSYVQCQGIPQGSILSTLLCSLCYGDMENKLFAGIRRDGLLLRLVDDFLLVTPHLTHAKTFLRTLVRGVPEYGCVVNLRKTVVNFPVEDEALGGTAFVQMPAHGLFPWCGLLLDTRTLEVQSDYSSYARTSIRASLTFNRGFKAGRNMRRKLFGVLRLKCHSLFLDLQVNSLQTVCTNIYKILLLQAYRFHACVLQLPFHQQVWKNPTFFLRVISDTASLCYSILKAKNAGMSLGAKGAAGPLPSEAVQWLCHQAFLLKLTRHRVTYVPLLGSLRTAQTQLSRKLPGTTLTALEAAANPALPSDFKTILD

As to `CN(C)CCN1C(=O)c2ccc3c4c(ccc(c24)C1=O)C(=O)N(CCN(C)C)C3=O`, the results for the pIC50 (in experiment [1]; in the experiment with NCI-H460) were 5.82 and 6.80, respectively. Moreover, the result in experiment [2] was inactive.

Take `O=C1c2ccc3c4ccc5c6c(ccc(c7ccc(c2c37)C(=O)N1CCN1CCCCC1)c64)C(=O)N(CCN1CCCCC1)C5=O`: the pIC50 (usually −log10 of the IC50, conventionally taken in molar units) in experiment [1] was 5.30; in the experiment with HT-29, 5.04; in the experiment on NCI-H460 it was no more than 4.00; in experiment [4], 6.70. In addition, the Selectivity index in experiment [3] worked out at 25.

Take `C[N+](C)(C)CCCN1C(=O)c2ccc3c4c(ccc(c24)C1=O)C(=O)N(CCC[N+](C)(C)C)C3=O`: the pIC50 is 5.30 in experiment [1], 5.05 with HT-29, 5.94 with NCI-H460 and 5.60 in experiment [4]. Also, the Selectivity index in experiment [3] was found to be 2.

Regarding `CN(C)CCN1Cc2ccc3c4c(ccc(c24)C1)CN(CCN(C)C)C3`, the pIC50 in experiment [1] was 4.60; with HT-29 it was 4.82; in the experiment on NCI-H460, no more than 4.00. Moreover, the outcome in experiment [2] was inactive.

Consider `O=C1c2ccc3c4ccc5c6c(ccc(c7ccc(c2c37)C(=O)N1CCNCCO)c64)C(=O)N(CCNCCO)C5=O`, for which the pIC50 is 6.70 in experiment [1], 5.93 with HT-29, 5.58 in the experiment on NCI-H460 and 7.22 in experiment [4]. In experiment [3], the Selectivity index came out at 2.

In the case of `C[N+](C)(C)CCN1C(=O)c2ccc3c4ccc5c6c(ccc(c7ccc(c2c37)C1=O)c64)C(=O)N(CC[N+](C)(C)C)C5=O`, the pIC50 in experiment [1] is 6.82; in the experiment with HT-29 it was no more than 4.00; with NCI-H460, no more than 4.00; in experiment [4], 7.52. In experiment [3], the Selectivity index turned out to be 4.2.

On to `CN(C)CCN1Cc2cccc3cccc(c23)C1`, for which the pIC50 in experiment [1] is less than 4.40; with HT-29, no more than 4.00; with NCI-H460, no more than 4.00. Besides, in experiment [2], the result was inactive.

For `CN(C)CCN1C(=O)c2ccc3c4ccc5c6c(ccc(c7ccc(c2c37)C1=O)c64)C(=O)N(CCN(C)C)C5=O`, the pIC50 in experiment [1] is 6.05; in the experiment with HT-29, 6.64; in the experiment with NCI-H460 it was 5.64; in experiment [4], 6.80. Further, the Selectivity index in experiment [3] was 5.6.

In the case of `C[N+](C)(C)CCN1C(=O)c2ccc3c4c(ccc(c24)C1=O)C(=O)N(CC[N+](C)(C)C)C3=O`, the pIC50 in experiment [1] was 5.30; with HT-29 it was 5.49; in the experiment on NCI-H460, 5.66; in experiment [4], 5.60. Moreover, in experiment [3], the Selectivity index turned out to be 2.

As to `C[N+](C)(C)CCN1C(=O)c2cccc3cccc(c23)C1=O`, the pIC50 was 4.66 in experiment [1] and no more than 4.00 with NCI-H460. Further, the result in experiment [2] was inactive.

Consider `CN1Cc2ccc3c4c(ccc(c24)C1)CN(C)C3`, for which the pIC50 was less than 4.40 in experiment [1], no more than 4.00 in the experiment on HT-29 and no more than 4.00 in the experiment on NCI-H460. In addition, the outcome in experiment [2] was inactive.

As for `CN(C)CCN1C(=O)c2cccc3cccc(c23)C1=O`, the results for the pIC50 (in experiment [1]; in the experiment with HT-29; with NCI-H460) were less than 4.40, 5.30 and 5.47, respectively. Also, the result in experiment [2] was inactive.

Regarding `CN(C)CCCN1C(=O)c2ccc3c4c(ccc(c24)C1=O)C(=O)N(CCCN(C)C)C3=O`, the pIC50 is 5.19 in experiment [1], 6.89 in the experiment on HT-29, 6.38 with NCI-H460 and 5.46 in experiment [4]. The Selectivity index in experiment [3] came out at 1.8.

In the case of `O=C1c2ccc3c4c(ccc(c24)C(=O)N1CCNCCO)C(=O)N(CCNCCO)C3=O`, the pIC50 was 5.24 in experiment [1], 4.93 in the experiment on HT-29 and 5.03 in the experiment on NCI-H460. Also, in experiment [2], the result was inactive.

Consider `c1cc2c3ccc4c5c(ccc(c6ccc7c(c1CN(CCN1CCCCC1)C7)c26)c53)CN(CCN1CCCCC1)C4`, for which the negative logarithm of the IC50 (pIC50) is 5.00 in experiment [1], 5.27 in the experiment with HT-29, 4.55 in the experiment on NCI-H460 and 6.40 in experiment [4]. Also, the Selectivity index in experiment [3] came to 25.
